What all share (type): cell-based
In assay [1] the test system is M. smegmatis wild type. Kind of assay: Uptake of fluoro trehalose, GC-MS of cytosolic extracts. Particulars: 100 μM, 1 h, 37° C. The protocol:
Cultures of M. smegmatis wild type, ΔsugC mutant, or ΔsugC::sugC complement were generated by inoculating a single colony from a freshly streaked agar plate (with appropriate antibiotic, if needed) into 3 mL Middlebrook 7H9 liquid medium supplemented with ADC (albumin, dextrose, and catalase), 0.5% glycerol, and 0.05% Tween-80 in a culture tube. Starter cultures were incubated at 37° C. with shaking until reaching log phase. Cells were then cultured at 37° C. in the presence or absence of 2-, 3-, 4-, or 6-fluoro trehalose (100 μM) in 7H9 liquid medium for 1 h, then centrifuged and washed (5000 rpm for 5 min) three times in ultrapure water. The washed cells were resuspended in ultrapure water and boiled for 4 h, then centrifuged. The supernatant was collected and dried on a speedvac to yield water-soluble cytosolic metabolites (e.g., trehalose and fluoro trehaloses, if present), which were subsequently trimethylsilyl (TMS)-derivatized using N-Methyl-N-(trimethylsilyl) trifluoroacetamide (MSTFA) in pyridine and analyzed by gas chromatography-mass spectrometry (GC-MS).

The test system of assay [2] is M. smegmatis wild type. Kind of assay: One-pot metabolic labeling and fluorescence imaging (CuAAC with alkyne fluorophore). As to conditions: +TreT reaction mixture, 25 μM azido sugar, 4 h, 37° C.
In assay [3] the test system is M. smegmatis ΔsugC mutant. The assay is described as above. As to conditions: ΔsugC mutant missing the trehalose transporter; 25 μM, 4 h. The protocol:
One-Pot Metabolic Labeling and Imaging of M. smegmatis: Cultures of M. smegmatis wild type, ΔsugC mutant, or ΔsugC::sugC complement were generated by inoculating a single colony from a freshly streaked agar plate (with appropriate antibiotic, if needed) into 3 mL Middlebrook 7H9 liquid medium supplemented with ADC (albumin, dextrose, and catalase), 0.5% glycerol, and 0.05% Tween-80 in a culture tube. Starter cultures were incubated at 37° C. with shaking until reaching log phase. Meanwhile, using the procedure described above, a 50 μL TreT reaction employing 6-GlcAz (10 mM) as the substrate was carried out to synthesize 6-TreAz (+TreT sample). A control reaction lacking TreT was run in parallel (−TreT control). […] Given the observed quantitative conversion for this reaction (FIG. 1B, Entry 16), a 6-TreAz concentration of 10 mM was assumed in the +TreT sample. […] Fluorescence imaging was performed using a GFP LED light cube (maximum excitation/emission=470/510 nm). […]
The same experiments were performed in M. smegmatis ΔsugC, a mutant missing the trehalose transporter required for 6-TreAz uptake and labeling, as well as its complement, M. smegmatis ΔsugC::sugC. Fluorescence was abolished in the ΔsugC mutant and restored in the complement, confirming that 6-TreAz labeling proceeded via the trehalose transporter pathway.

The test system of assay [4] is M. smegmatis ΔsugC::sugC complement. The description is as above. Particulars: 25 μM, 4 h. On the procedure:
One-Pot Metabolic Labeling and Imaging of M. smegmatis: Cultures of M. smegmatis wild type, ΔsugC mutant, or ΔsugC::sugC complement were generated by inoculating a single colony from a freshly streaked agar plate (with appropriate antibiotic, if needed) into 3 mL Middlebrook 7H9 liquid medium supplemented with ADC (albumin, dextrose, and catalase), 0.5% glycerol, and 0.05% Tween-80 in a culture tube. Starter cultures were incubated at 37° C. with shaking until reaching log phase. Meanwhile, using the procedure described above, a 50 μL TreT reaction employing 6-GlcAz (10 mM) as the substrate was carried out to synthesize 6-TreAz (+TreT sample). A control reaction lacking TreT was run in parallel (−TreT control). After incubation at 70° C. for 1 h, the reactions were stopped by placing on ice. Given the observed quantitative conversion for this reaction (FIG. 1B, Entry 16), a 6-TreAz concentration of 10 mM was assumed in the +TreT sample. For the −TreT control, a 6-GcAz concentration of 10 mM was assumed. The aqueous reaction mixtures were directly diluted into M. smegmatis wild type, ΔsugC mutant, or ΔsugC::sugC complement growing in 7H9 liquid medium to a final azido sugar concentration of 25 μM and a culture density of OD600=0.15. […] Fluorescence imaging was performed using a GFP LED light cube (maximum excitation/emission=470/510 nm). […]

Turning to `OC[C@H]1O[C@H](O[C@H]2O[C@H](CO)[C@@H](O)[C@H](O)[C@H]2F)[C@H](O)[C@@H](O)[C@@H]1O` [2-fluoro trehalose, 2-Deoxy-2-fluoro-α,α-D-trehalose], the “fluoro trehalose derivative in cytosolic extracts (uptake)” value in assay [1] is listed as “observed in cytosolic extracts”.
On the same count and under the same terms, the same measure for `OC[C@H]1O[C@H](O[C@H]2O[C@H](CF)[C@@H](O)[C@H](O)[C@H]2O)[C@H](O)[C@@H](O)[C@@H]1O` [6-fluoro trehalose]: “observed in cytosolic extracts”; for `OC[C@H]1O[C@H](O[C@H]2O[C@H](CO)[C@@H](O)[C@H](F)[C@H]2O)[C@H](O)[C@@H](O)[C@@H]1O` [3-fluoro trehalose, 3-Deoxy-3-fluoro-α,α-D-trehalose]: “observed in cytosolic extracts”.
Consider `[N-]=[N+]=NC[C@H]1O[C@H](O[C@H]2O[C@H](CO)[C@@H](O)[C@H](O)[C@H]2O)[C@H](O)[C@@H](O)[C@@H]1O` [6-TreAz, 6-Azido-6-Deoxy-α,α-D-trehalose], for which the “fluorescence labeling of bacteria (fluorescence microscopy)” value in assay [2] is listed as “strong labeling”; in assay [3] it was “abolished”; in assay [4] it was “restored”.

For the origin of these results see patent US20210108247A1, “CHEMOENZYMATIC SYNTHESIS OF TREHALOSE ANALOGUES” (Central Michigan University, priority 2014, published 2021).
